From PMC12349723, “Computationally accelerated identification of P-glycoprotein inhibitors” (PLOS One, 2025)
“And” between values parts separate entries of the source, which are not always exact repeats. Identical values can stand only once. Like-named read-outs stand apart in the source and are kept apart here.

What was measured:
P-gp [1] = test: SWISS-ADME prediction of P-gp transport substrate; conditions: prediction compared to the LC-MS/MS intracellular accumulation data
Text: Identifying P-gp inhibitors that are not transport substrates remains inherently challenging. To that end, computational tools such as the SWISS-ADME server attempt to use a molecule’s unique chemical and structural characteristics to predict whether it is likely to be a P-gp transport substrate. Our LC-MS/MS assays allowed us to retroactively test the validity of predictions from SWISS-ADME. […] Alternative identifiers for the molecules identified in this study are shown in S7 Table.
S1 Table. Known P-gp Inhibitors and Predicted Chemical Properties. A non-exhaustive list of known P-gp inhibitors and their selected chemical properties ^[64, 65]. Clinical trial outcomes were adapted from ^[10, 11]. Compounds were evaluated using the SWISS-ADME server ^[54]. […] “Predicted P-gp Substrate” - predicted by SWISS-ADME to be a transport substrate of P-gp. “Known P-gp Substrate” – In addition to being P-gp inhibitors, these molecules are: known transport substrates of P-gp, known non-transport substrates of P-gp, unknown whether it is a transport substrate of P-gp ^[66-68]. If the molecule is designated in a specific generation of P-gp inhibitors - First Generation P-gp inhibitors, Second generation P-gp inhibitors, Third generation P-gp inhibitors.

P-gp [2] = target: T1, P-gp (Homo sapiens, UniProt P08183); test: Top Hit classification from combined in vitro criteria; conditions: reverse MDR, do not increase PTX toxicity in chemo-sensitive cancer cells, non-toxic to noncancerous cells, not P-gp substrates
T1 construct: The MDR, P-gp overexpressing DU145-TXR cells were maintained under positive selection pressure; endogenous in cells; host or cells: DU145-TXR (paclitaxel-resistant sub-line of DU145 human prostate cancer cells)

A2780-ADR cells = test: MTT viability assay, reversal of MDR in P-gp overexpressing A2780-ADR cells; format: cell-based, human; conditions: for Reversal of MDR in A2780-ADR cells: 15 µM compound with or without 500 nM PTX, 48 h, MTT; for Mean % Survival / % Survival (individual sample) / viability at 15 µM: A2780-ADR cells; for viability at 15 µM: Homo sapiens, A2780 ADR
Summary of the method: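 A2780 and doxorubicin-selected (100 nM) P-gp-overexpressing A2780-ADR cells, 3,000/well in RPMI + 10% FBS, were exposed to compounds, with or without chemotherapeutic, for 48 h at 37 °C. MTT read at 570 nm after 4 h; survival expressed as percent of vehicle, or vehicle-plus-chemotherapeutic, control.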

DU145-TXR cells = test: MTT viability assay, reversal of MDR (re-sensitization to paclitaxel) in P-gp overexpressing DU145-TXR cells; format: cell-based, human; conditions: for % Survival, mean / % Survival: 15 µM compound + 500 nM PTX (Paclitaxel, Taxol); for % Survival, mean / % Survival / viability at 15 µM: DU145-TXR; for Re-sensitization of DU145-TXR cells to PTX (reversal of MDR): 15 µM compound with or without 500 nM PTX, 48 h, MTT, re-sensitization = 30% or greater decrease in cell viability; for viability at 15 µM: Homo sapiens, 15 µM Compound Alone
Summary of the method: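 MTT viability testing was done on P-gp overexpressing, multidrug resistant DU145-TXR human prostate cancer cells. They were kept in 10 nM paclitaxel and seeded at 3,000 cells per well in complete RPMI. Cells were exposed to compound, with or without paclitaxel, for 48 hours. MTT was then added for 4 hours, formazan was dissolved in DMSO, and absorbance was read at 570 nm. Survival was expressed relative to control-treated cells.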

[3] = 15 µM compound + 500 nM PTX, mean of 12 samples
[4] = 15 µM compound + 500 nM PTX, single samples (trials 1-3, samples 1-4)
[5] = 15 µM compound alone, single samples (trials 1-3, samples 1-4)
[6] = 15 µM compound alone, mean of 12 samples, read-out: Mean % Survival
[7] = mean of 8 samples, read-out: % Survival, mean
[8] = trial 1, sample 1, read-out: % Survival
[9] = trial 1, sample 2, read-out: % Survival
[10] = trial 1, sample 3, read-out: % Survival
[11] = trial 1, sample 4, read-out: % Survival
[12] = trial 2, sample 1, read-out: % Survival
[13] = trial 2, sample 2, read-out: % Survival
[14] = trial 2, sample 3, read-out: % Survival
[15] = trial 2, sample 4, read-out: % Survival

T1 sequence (P08183 whole entry): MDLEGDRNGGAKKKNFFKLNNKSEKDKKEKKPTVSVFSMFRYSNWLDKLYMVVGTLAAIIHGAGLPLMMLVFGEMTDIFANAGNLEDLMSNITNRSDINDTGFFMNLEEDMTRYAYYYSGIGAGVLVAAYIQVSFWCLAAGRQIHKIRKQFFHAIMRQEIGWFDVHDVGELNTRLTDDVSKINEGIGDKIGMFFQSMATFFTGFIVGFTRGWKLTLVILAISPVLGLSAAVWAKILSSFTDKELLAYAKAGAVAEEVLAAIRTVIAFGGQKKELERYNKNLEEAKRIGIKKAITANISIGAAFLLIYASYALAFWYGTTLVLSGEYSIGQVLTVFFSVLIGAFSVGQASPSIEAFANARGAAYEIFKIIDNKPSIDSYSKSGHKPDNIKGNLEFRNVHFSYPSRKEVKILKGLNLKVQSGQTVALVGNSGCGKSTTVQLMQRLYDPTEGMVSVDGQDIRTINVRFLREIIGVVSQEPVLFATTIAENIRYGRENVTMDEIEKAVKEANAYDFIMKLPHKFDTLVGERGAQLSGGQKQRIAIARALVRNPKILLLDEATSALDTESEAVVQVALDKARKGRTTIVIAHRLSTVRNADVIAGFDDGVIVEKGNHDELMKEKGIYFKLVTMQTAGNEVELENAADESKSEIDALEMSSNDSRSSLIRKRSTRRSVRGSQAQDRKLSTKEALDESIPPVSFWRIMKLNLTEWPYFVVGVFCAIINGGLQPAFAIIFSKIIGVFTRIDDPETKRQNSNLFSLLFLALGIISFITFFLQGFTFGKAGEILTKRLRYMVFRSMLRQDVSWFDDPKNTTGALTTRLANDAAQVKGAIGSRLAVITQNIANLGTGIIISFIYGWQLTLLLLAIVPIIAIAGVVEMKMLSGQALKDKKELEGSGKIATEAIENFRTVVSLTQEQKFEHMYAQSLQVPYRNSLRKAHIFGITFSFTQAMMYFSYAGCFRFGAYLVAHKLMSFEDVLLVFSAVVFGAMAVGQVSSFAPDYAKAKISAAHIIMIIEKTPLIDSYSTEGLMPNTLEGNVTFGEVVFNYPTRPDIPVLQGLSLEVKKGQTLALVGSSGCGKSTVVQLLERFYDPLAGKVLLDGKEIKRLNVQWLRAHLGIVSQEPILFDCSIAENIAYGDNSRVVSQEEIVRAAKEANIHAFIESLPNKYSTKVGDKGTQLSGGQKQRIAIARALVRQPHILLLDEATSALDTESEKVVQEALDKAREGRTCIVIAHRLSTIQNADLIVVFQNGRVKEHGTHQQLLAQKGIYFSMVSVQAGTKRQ

Row | SMILES | Correct P-gp Substrate Prediction? (P-gp [1]) | Top Hit (P-gp [2]) | Reversal of MDR in A2780-ADR cells (A2780-ADR cells) | Mean % Survival (A2780-ADR cells; [3]) | viability at 15 µM (A2780-ADR cells; [6]) | % Survival, mean (DU145-TXR cells; mean of 8 samples) | % Survival (DU145-TXR cells; trial 1, sample 1) | % Survival (DU145-TXR cells; trial 1, sample 2) | % Survival (DU145-TXR cells; trial 1, sample 3) | % Survival (DU145-TXR cells; trial 1, sample 4) | % Survival (DU145-TXR cells; trial 2, sample 1) | % Survival (DU145-TXR cells; trial 2, sample 2) | % Survival (DU145-TXR cells; trial 2, sample 3) | % Survival (DU145-TXR cells; trial 2, sample 4) | Re-sensitization of DU145-TXR cells to PTX (reversal of MDR) (DU145-TXR cells) | viability at 15 µM (DU145-TXR cells; [7]) | viability at 15 µM (DU145-TXR cells; [8]) | viability at 15 µM (DU145-TXR cells; [9]) | viability at 15 µM (DU145-TXR cells; [10]) | viability at 15 µM (DU145-TXR cells; [11]) | other results
1 | Cc1onc(-c2ccccc2)c1-c1nnc(Cn2cnc3ccccc3c2=O)o1 [Compound 111, Cc1onc(c1-c1nnc(Cn2cnc3ccccc3c2=O)o1)-c1ccccc1] | No | Yes | reversed MDR in A2780-ADR cells | 47.6% | 97.3% | 41.1% | 30% | 34% | 44% | 39% | 51% | 48% | 46% | 38% | re-sensitized DU145-TXR cells to PTX | 102% | 111% | 93% | 90% | 94% | % Survival (individual sample) (A2780-ADR cells; [4]): 52% and 38%; % Survival (individual sample) (A2780-ADR cells; [5]): 95% and 98%; viability at 15 µM (DU145-TXR cells; [12]): 106%; viability at 15 µM (DU145-TXR cells; [13]): 115%; viability at 15 µM (DU145-TXR cells; [14]): 108%; viability at 15 µM (DU145-TXR cells; [15]): 103%
2 | COc1cccc(N2CCN(c3ccc4nnc(CCC(=O)Nc5ccc(F)c(F)c5)n4n3)CC2)c1 [Compound 101, COc1cccc(c1)N1CCN(CC1)c1ccc2nnc(CCC(=O)Nc3ccc(F)c(F)c3)n2n1] | No | Yes | reversed MDR in A2780-ADR cells | 41.5% | 88% | 57.4% | 48% | 48% | 37% | 48% | 83% | 70% | 66% | 58% | re-sensitized DU145-TXR cells to PTX | 112% | 121% | 110% | 111% | 113% | % Survival (individual sample) (A2780-ADR cells; [4]): 46%; % Survival (individual sample) (A2780-ADR cells; [5]): 93%; viability at 15 µM (DU145-TXR cells; [12]): 117%; viability at 15 µM (DU145-TXR cells; [13]): 106%; viability at 15 µM (DU145-TXR cells; [14]): 109%; viability at 15 µM (DU145-TXR cells; [15]): 104%
3 | Cc1ccc(-c2noc(-c3cn(Cc4ccc(NS(=O)(=O)c5ccccc5F)cc4)cn3)n2)cc1 [Compound 103, Cc1ccc(cc1)-c1noc(n1)-c1cn(Cc2ccc(NS(=O)(=O)c3ccccc3F)cc2)cn1] | No | No | reversed MDR in A2780-ADR cells | 44.4% | 70.4% | 19.9% | 11% | 11% | 11% | 14% | 32% | 27% | 27% | 28% | re-sensitized DU145-TXR cells to PTX | 76.4% | 58% | 50% | 48% | 52% | % Survival (individual sample) (A2780-ADR cells; [5]): 69%; viability at 15 µM (A2780-ADR cells; 15 µM compound alone, single samples (trials 1-3, samples 1-4), read-out: % Survival (individual sample)): 67%; viability at 15 µM (DU145-TXR cells; [12]): 108%; viability at 15 µM (DU145-TXR cells; [13]): 104%; viability at 15 µM (DU145-TXR cells; [14]): 94%; viability at 15 µM (DU145-TXR cells; [15]): 96%
4 | Cc1onc(-c2ccccc2)c1-c1nnc(Cn2cnc3c(oc4ccccc43)c2=O)o1 [Compound 78, Cc1onc(c1-c1nnc(Cn2cnc3c4ccccc4oc3c2=O)o1)-c1ccccc1] | No | Yes | reversed MDR in A2780-ADR cells | 41.5% | 82.7% | 40.6% | 40% | 45% | 44% | 45% | 34% | 40% | 35% | 41% | re-sensitized DU145-TXR cells to PTX | 93.3% | 90% | 107% | 99% | 93% | % Survival (individual sample) (A2780-ADR cells; [4]): 48% and 26%; % Survival (individual sample) (A2780-ADR cells; [5]): 81% and 88%; viability at 15 µM (DU145-TXR cells; [12]): 91%; viability at 15 µM (DU145-TXR cells; [13]): 89%; viability at 15 µM (DU145-TXR cells; [14]): 93%; viability at 15 µM (DU145-TXR cells; [15]): 83%
5 | O=S(=O)(Cc1nc2ccccc2n1CC(O)c1ccc(Cl)cc1)c1ccccc1 (stereo not drawn) [Compound 97, OC(Cn1c(CS(=O)(=O)c2ccccc2)nc2ccccc12)c1ccc(Cl)cc1] | Yes | Yes | reversed MDR in A2780-ADR cells | 44.3% | 92.5% | 34.9% | 26% | 30% | 24% | 42% | 44% | 41% | 30% | 42% | re-sensitized DU145-TXR cells to PTX | 87.2% | 107% | 82% | 82% | 83% | % Survival (individual sample) (A2780-ADR cells; [4]): 47% and 29%; viability at 15 µM (DU145-TXR cells; [12]): 77%; viability at 15 µM (DU145-TXR cells; [13]): 89%; viability at 15 µM (DU145-TXR cells; [14]): 88%; viability at 15 µM (DU145-TXR cells; [15]): 90%
